Tests used:
COS-7 cells = details: previously shown (Zhou et al., 1990); cited from earlier work
[1] = test system: D5 pseudogenes D5.psi.1 (HGRI-6) and D5.psi.2 (HGRI-8); assay: [3H]SCH23390 binding to membranes of cells transfected with putative pseudogenes; set-up: species or system human; details: each of the two putative pseudogenes

| SMILES | ability to bind SCH23390 (COS-7 cells) | binding to pseudogene-transfected membranes [1] |
| --- | --- | --- |
| CN1CCc2cc(Cl)c(O)cc2[C@@H](c2ccccc2)C1 [SCH23390] | lack the ability to bind | – |
| CN1CCc2cc(Cl)c(O)cc2[C@@H](c2ccccc2)C1 [[^3 H]SCH23390] | – | failed to bind |
